Marks after values point to notes of the source that are not given here.
Test system: normal human keratinocytes
Assay: Keratinocyte differentiation: filaggrin immunolabeling normalized to nuclei
Format: cell-based
Conditions: positive reference 1 mMol/L, 72 hours
Protocol: To do this, normal human keratinocytes were cultured at 37° C. and 5% CO2. After a period of 4 days, they were treated with the products whose action it is desired to evaluate. After culturing for a further 72 hours at 37° C. and 5% CO2 with the test products, the cell lawns were rinsed, dried and then fixed with glacial methanol. Filaggrin, a keratinocyte differentiation marker, was detected and quantified by fluorescent immunolabeling with an anti-filaggrin primary antibody and a fluorescent secondary antibody to reveal the former. The nuclei were detected and quantified by marking with Hoechst, a fluorescent stain which binds to DNA and thus labels the nuclei. This last labeling was performed to normalize the results obtained previously on filaggrin. An increase in the filaggrin (area of labeling)/nuclei (area of labeling) ratio is evidence of an increase in the differentiation of the epidermal keratinocytes, and consequently of reinforcement of the barrier effect of the epidermis, which constitutes one of the factors of the reinforcement of the state of moisturization of the skin. An increase in keratinocyte differentiation makes it possible to reinforce the barrier effect of the human epidermis, and consequently to decrease the unesthetic effects that may be caused by the dehydration of human skin.

`[Ca+2].[Cl-].[Cl-]` [CaCl2] was tested, and the “Filaggrin (area of labeling)/nuclei (area of labeling)” value was 0.0245 ± 0.0045 and the “% stimulation vs control” value (filaggrin/nuclei) was 621* %.

Reference: US20230096761A1, “NOVEL COMPOSITION BASED ON POLYCAFFEOYLQUINIC ACIDS, COSMETIC USE THEREOF AND COSMETIC COMPOSITIONS COMPRISING SAME” (Societe D'Exploitation De Produits Pour Les Industries …, priority 2018, published 2023)
